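How tested: cells in 96-well plates exposed to compound for 48 hours at five concentrations. Definition used: TGI = concentration required for complete inhibition of growth.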
Legend:
Experiment in all cases: DTP human tumour cell line panel, 48 h
[1] = test system: 786-0 renal
[2] = test system: A549 NSCLC
[3] = test system: ACHN renal
[4] = test system: CAKI-1 renal
[5] = test system: CCRF-CEM leukemia
[6] = test system: COLO 205 colon
[7] = test system: DLD-1 colon
[8] = test system: DMS 114 small cell lung
[9] = test system: DMS 273 small cell lung
[10] = test system: EKVX NSCLC
[11] = test system: HCC-2998 colon
[12] = test system: HCT-116 colon
[13] = test system: HCT-15 colon
[14] = test system: HL-60(TB) leukemia
[15] = test system: HOP-62 NSCLC
[16] = test system: HOP-92 NSCLC
[17] = test system: HT29 colon
[18] = test system: IGROV1 ovarian
[19] = test system: K-562 leukemia
[20] = test system: KM12 colon
[21] = test system: KM20L2 colon
[22] = test system: LOX IMVI melanoma
[23] = test system: LXFL 529 NSCLC
[24] = test system: M14 melanoma
[25] = test system: M19-MEL melanoma
[26] = test system: MALME-3M melanoma
[27] = test system: MOLT-4 leukemia
[28] = test system: NCI-H23 lung
[29] = test system: NCI-H460 lung
[30] = test system: OVCAR-3 ovarian
[31] = test system: OVCAR-4 ovarian
[32] = test system: OVCAR-5 ovarian
[33] = test system: OVCAR-8 ovarian
[34] = test system: RPMI-8226 leukemia
[35] = test system: RXF 393 renal
[36] = test system: RXF-631 renal
[37] = test system: SF-268 CNS
[38] = test system: SF-295 CNS
[39] = test system: SF-539 CNS
[40] = test system: SK-MEL-2 melanoma
[41] = test system: SK-MEL-5 melanoma
[42] = test system: SK-OV-3 ovarian
[43] = test system: SN12C renal
[44] = test system: SNB-19 CNS
[45] = test system: SNB-75 CNS
[46] = test system: SNB-78 CNS
[47] = test system: SW-620 colon
[48] = test system: TK-10 renal
[49] = test system: U251 CNS
[50] = test system: UACC-257 melanoma
[51] = test system: UACC-62 melanoma
[52] = test system: UO-31 renal
[53] = test system: XF 498 CNS

Molecule `COC(=O)/C=C1\CCC(C)O1` (stereo not drawn) has a TGI [1] greater than 100 µM, a TGI [2] greater than 100 µM and a TGI [3] greater than 100 µM. The TGI [4] was greater than 100 µM, the TGI [5] was greater than 100 µM and the TGI [6] was greater than 100 µM. The TGI [7] was greater than 100 µM, the TGI [8] was greater than 100 µM and the TGI [9] was greater than 100 µM. For the same molecule, the TGI [10] was greater than 100 µM, the TGI [11] was greater than 100 µM and the TGI [12] was greater than 100 µM. The TGI [13] was greater than 100 µM, the TGI [14] was greater than 100 µM and the TGI [15] was greater than 100 µM. It also gave a TGI [16] greater than 100 µM, a TGI [17] greater than 100 µM and a TGI [18] greater than 100 µM. The TGI [19] was greater than 100 µM, the TGI [20] was greater than 100 µM and the TGI [21] was greater than 100 µM. For the same molecule, the TGI [22] was greater than 100 µM, the TGI [23] was greater than 100 µM and the TGI [24] was greater than 100 µM. For the same molecule, the TGI [25] was greater than 100 µM, the TGI [26] was greater than 100 µM and the TGI [27] was greater than 100 µM. It also gave a TGI [28] greater than 100 µM, a TGI [29] greater than 100 µM and a TGI [30] greater than 100 µM. The TGI [31] was greater than 100 µM, the TGI [32] was greater than 100 µM and the TGI [33] was greater than 100 µM. For the same molecule, the TGI [34] was greater than 100 µM, the TGI [35] was greater than 100 µM and the TGI [36] was greater than 100 µM. It also gave a TGI [37] greater than 100 µM, a TGI [38] greater than 100 µM and a TGI [39] greater than 100 µM. It also gave a TGI [40] greater than 100 µM, a TGI [41] greater than 100 µM and a TGI [42] greater than 100 µM. It also gave a TGI [43] greater than 100 µM, a TGI [44] greater than 100 µM and a TGI [45] of 94 µM. The TGI [46] was greater than 100 µM, the TGI [47] was greater than 100 µM and the TGI [48] was greater than 100 µM. It also gave a TGI [49] greater than 100 µM, a TGI [50] greater than 100 µM and a TGI [51] greater than 100 µM. It also gave a TGI [52] greater than 100 µM and a TGI [53] greater than 100 µM.

From PubChem BioAssay (NCI)
